From PubChem BioAssay AID210 (DTP/NCI, 2004)
“And” between values parts separate entries of the source, which are not always exact repeats. Equal values may be shown once. Toxic doses and inconclusive results are not listed.

Test system: CD2F1 mice, ip Colon 26 adenocarcinoma, median survival T/C
Assay: NCI In Vivo Anticancer Drug Screen. Data for tumor model Colon 26 Adenocarcinoma (intraperitoneal) in CD2F1 (CDF1) mice
Conditions: endpoint: median survival time, higher = longer survival
Experimental: The antitumor activity of compounds was measured in mice bearing transplantable tumors. Survival or tumor size were measured and the results are expressed as the measurement made in the treated group (T) divided by the measurement made in the vehicle treated control group (C). The tumor model used in this assay is Colon 26 Adenocarcinoma (intraperitoneal) in CD2F1 (CDF1) mice

[1] = dose: 12.5 mg/kg/injection, schedule: Q04DX003 (ip), vehicle: saline with Tween-80
[2] = dose: 25.0 mg/kg/injection, schedule: Q04DX003 (ip), vehicle: saline with Tween-80
[3] = dose: 50.0 mg/kg/injection, schedule: Q04DX003 (ip), vehicle: saline with Tween-80
[4] = dose: 100.0 mg/kg/injection, schedule: Q04DX003 (ip), vehicle: saline with Tween-80
[5] = dose: 80.0 mg/kg/injection, schedule: Q04DX003 (ip), vehicle: saline
[6] = dose: 160.0 mg/kg/injection, schedule: Q04DX003 (ip), vehicle: saline

In the case of `COc1c(O)c2c(c3cc(C(=O)N4CCc5c4c(O)c(OC)c4[nH]c(C(=O)N6CC7CC78C6=CC(=O)c6[nH]cc(C)c68)cc54)[nH]c13)CCN2C(N)=O` (configuration not stated), the T/C (dose: 6.3 micrograms/kg/injection, schedule: Q01DX009 (ip), vehicle: saline) is reported as 104 % of control, the T/C (dose: 12.5 micrograms/kg/injection, schedule: Q01DX009 (ip), vehicle: saline) is reported as 99 % of control and the T/C (dose: 25.0 micrograms/kg/injection, schedule: Q01DX009 (ip), vehicle: saline) is reported as 115 % of control. For the same molecule, the T/C (dose: 50.0 micrograms/kg/injection, schedule: Q01DX009 (ip), vehicle: saline) was 150 % of control and the T/C (dose: 100.0 micrograms/kg/injection, schedule: Q01DX009 (ip), vehicle: saline) was 123 % of control.

In the case of `C=CCNc1ccc(C)cc1`, the T/C [1] is reported as 104 % of control, the T/C [2] is reported as 104 % of control and the T/C [3] is reported as 96 % of control. The T/C [4] was 97 % of control.

`O=c1[nH]cc(F)c(=O)[nH]1` was tested, and the T/C (dose: 28.8 mg/kg/injection, schedule: Q04DX003 (sc), vehicle: other) was 120 % of control, the T/C (dose: 36.0 mg/kg/injection, schedule: Q04DX003 (ip), vehicle: saline) was 175 % of control and the T/C (dose: 40.0 mg/kg/injection, schedule: Q04DX003 (ip), vehicle: saline) was 186 % of control. For the same molecule, the T/C (dose: 60.0 mg/kg/injection, schedule: Q04DX003 (ip), vehicle: saline) was 164 % of control, the T/C (dose: 70.0 mg/kg/injection, schedule: Q07DX003 (ip), vehicle: saline) was 152 % of control and the T/C [5] was 95 % of control. The T/C (dose: 100.0 mg/kg/injection, schedule: Q04DX003 (ip), vehicle: saline) was 79 % of control, the T/C (dose: 100.0 mg/kg/injection, schedule: Q07DX003 (ip), vehicle: saline) was 165 % of control and the T/C (dose: 140.0 mg/kg/injection, schedule: Q07DX003 (ip), vehicle: saline) was 150 % of control. For the same molecule, the T/C [6] was 74 % of control.

`Cc1ncc([N+](=O)[O-])n1CCSC(N)=O` was tested, and the T/C [1] was 94 % of control, the T/C [2] was 124 % of control and 96 % of control and the T/C [3] was 89 % of control. For the same molecule, the T/C [4] was 105 % of control and 95 % of control, the T/C (dose: 200.0 mg/kg/injection, schedule: Q04DX003 (ip), vehicle: saline with Tween-80) was 90 % of control and 94 % of control and the T/C (dose: 400.0 mg/kg/injection, schedule: Q04DX003 (ip), vehicle: saline with Tween-80) was 96 % of control.

`Nc1nc([Se])c2ncn(C3OC(CO)C(O)C3O)c2n1` (configuration not stated) was tested, and the T/C (dose: 4.0 mg/kg/injection, schedule: Q04DX003 (ip), vehicle: saline) was 114 % of control, the T/C (dose: 4.0 mg/kg/injection, schedule: Q04DX003 (ip), vehicle: suspension in saline) was 116 % of control and the T/C (dose: 8.0 mg/kg/injection, schedule: Q04DX003 (ip), vehicle: saline) was 104 % of control. The T/C (dose: 8.0 mg/kg/injection, schedule: Q04DX003 (ip), vehicle: suspension in saline) was 106 % of control, the T/C (dose: 16.0 mg/kg/injection, schedule: Q04DX003 (ip), vehicle: saline) was 109 % of control and the T/C (dose: 16.0 mg/kg/injection, schedule: Q04DX003 (ip), vehicle: suspension in saline) was 114 % of control. The T/C (dose: 32.0 mg/kg/injection, schedule: Q04DX003 (ip), vehicle: saline) was 111 % of control, the T/C (dose: 32.0 mg/kg/injection, schedule: Q04DX003 (ip), vehicle: suspension in saline) was 116 % of control and the T/C (dose: 64.0 mg/kg/injection, schedule: Q04DX003 (ip), vehicle: saline) was 121 % of control. For the same molecule, the T/C (dose: 64.0 mg/kg/injection, schedule: Q04DX003 (ip), vehicle: suspension in saline) was 114 % of control.

`CCC1(O)CC2CN(CCc3c([nH]c4ccccc34)C(C(=O)OC)(c3cc4c(cc3OC)N(C)C3C(O)(C(=O)NCCSSCCNC(=O)C5(O)C(O)C6(CC)C=CCN7CCC8(c9cc(C%10(C(=O)OC)CC%11CN(CCc%12c%10[nH]c%10ccccc%12%10)CC(O)(CC)C%11)c(OC)cc9N(C)C58)C76)C(O)C5(CC)C=CCN6CCC43C65)C2)C1` (configuration not stated) was tested, and the T/C (dose: 540.0 micrograms/kg/injection, schedule: Q04DX003 (ip), vehicle: saline) was 114 % of control, the T/C (dose: 900.0 micrograms/kg/injection, schedule: Q04DX003 (ip), vehicle: saline) was 114 % of control and the T/C (dose: 1500.0 micrograms/kg/injection, schedule: Q04DX003 (ip), vehicle: saline) was 96 % of control.

For `CCC(=O)O[C@H]1CC[C@H]2[C@@H]3CCC4=CC(=O)CC[C@]4(C)[C@H]3CC[C@]12C`, the T/C [5] was 87 % of control, the T/C [6] was 96 % of control and the T/C (dose: 640.0 mg/kg/injection, schedule: Q04DX003 (ip), vehicle: saline) was 86 % of control.

In the case of `C=C1C(=O)OC2CC1CCC1(C)OC1CCC(C)=CCCC2(C)O` (configuration not stated), the T/C (dose: 22.5 mg/kg/injection, schedule: Q04DX002 (ip), vehicle: Klucel (hydroxypropylcellulose) (HPC)) is reported as 105 % of control, the T/C (dose: 45.0 mg/kg/injection, schedule: Q04DX002 (ip), vehicle: Klucel (hydroxypropylcellulose) (HPC)) is reported as 97 % of control and the T/C (dose: 90.0 mg/kg/injection, schedule: Q04DX002 (ip), vehicle: Klucel (hydroxypropylcellulose) (HPC)) is reported as 89 % of control.

`O=C(O)c1ccc(C(=O)O)c(C(=O)O)c1.[NH-]C1CCCCC1[NH-].[Pt+2]` was tested, and the T/C (dose: 2.0 mg/kg/injection, schedule: Q01DX004 (ip), vehicle: sodium bicarbonate) was 106 % of control, the T/C (dose: 3.12 mg/kg/injection, schedule: Q04DX003 (ip), vehicle: sodium bicarbonate) was 114 % of control and the T/C (dose: 4.0 mg/kg/injection, schedule: Q01DX004 (ip), vehicle: sodium bicarbonate) was 101 % of control. For the same molecule, the T/C (dose: 6.25 mg/kg/injection, schedule: Q04DX003 (ip), vehicle: sodium bicarbonate) was 111 % of control, the T/C (dose: 8.0 mg/kg/injection, schedule: Q01DX004 (ip), vehicle: sodium bicarbonate) was 105 % of control and the T/C (dose: 8.8 mg/kg/injection, schedule: Q01DX001 (ip), vehicle: saline) was 150 % of control. The T/C (dose: 8.8 mg/kg/injection, schedule: Q01DX001 (iv), vehicle: saline) was 96 % of control, the T/C (dose: 9.1 mg/kg/injection, schedule: Q04DX004 (iv), vehicle: sodium bicarbonate) was 105 % of control and the T/C (dose: 12.5 mg/kg/injection, schedule: Q04DX003 (ip), vehicle: sodium bicarbonate) was 167 % of control. For the same molecule, the T/C (dose: 13.2 mg/kg/injection, schedule: Q01DX001 (iv), vehicle: saline) was 87 % of control, the T/C (dose: 13.5 mg/kg/injection, schedule: Q04DX004 (iv), vehicle: sodium bicarbonate) was 104 % of control and the T/C (dose: 19.8 mg/kg/injection, schedule: Q01DX001 (ip), vehicle: saline) was 92 % of control. The T/C (dose: 20.0 mg/kg/injection, schedule: Q04DX004 (iv), vehicle: sodium bicarbonate) was 114 % of control, the T/C (dose: 25.0 mg/kg/injection, schedule: Q04DX003 (ip), vehicle: sodium bicarbonate) was 167 % of control and the T/C (dose: 29.6 mg/kg/injection, schedule: Q01DX001 (ip), vehicle: saline) was 96 % of control. For the same molecule, the T/C (dose: 35.0 mg/kg/injection, schedule: Q04DX002 (ip), vehicle: sodium bicarbonate) was 103 % of control, the T/C (dose: 44.4 mg/kg/injection, schedule: Q01DX001 (iv), vehicle: saline) was 121 % of control and the T/C (dose: 50.0 mg/kg/injection, schedule: Q04DX003 (ip), vehicle: sodium bicarbonate) was 159 % of control. The T/C (dose: 100.0 mg/kg/injection, schedule: Q04DX003 (ip), vehicle: sodium bicarbonate) was 101 % of control.

For `CC1CCC(NC(=O)N(CCCl)N=O)CC1` (configuration not stated), the T/C (dose: 5.0 mg/kg/injection, schedule: Q04DX003 (ip), vehicle: Klucel (hydroxypropylcellulose) (HPC)) was 250 % of control, the T/C (dose: 6.7 mg/kg/injection, schedule: Q04DX002 (ip), vehicle: saline with Tween-80) was 106 % of control and the T/C (dose: 10.0 mg/kg/injection, schedule: Q04DX002 (ip), vehicle: saline with Tween-80) was 108 % of control. For the same molecule, the T/C (dose: 10.0 mg/kg/injection, schedule: Q04DX003 (ip), vehicle: Klucel (hydroxypropylcellulose) (HPC)) was 305 % of control, the T/C (dose: 12.0 mg/kg/injection, schedule: Q07DX003 (ip), vehicle: saline with Tween-80) was 189 % of control and 219 % of control and the T/C (dose: 15.0 mg/kg/injection, schedule: Q04DX002 (ip), vehicle: saline with Tween-80) was 123 % of control. For the same molecule, the T/C (dose: 17.0 mg/kg/injection, schedule: Q07DX003 (ip), vehicle: saline with Tween-80) was 262 % of control and 288 % of control, the T/C (dose: 20.0 mg/kg/injection, schedule: Q01DX001 (ip), vehicle: other) was 217 % of control and the T/C (dose: 20.0 mg/kg/injection, schedule: Q04DX003 (ip), vehicle: Klucel (hydroxypropylcellulose) (HPC)) was 437 % of control. The T/C (dose: 24.0 mg/kg/injection, schedule: Q07DX003 (ip), vehicle: saline with Tween-80) was 288 % of control and 354 % of control, the T/C (dose: 30.0 mg/kg/injection, schedule: Q01DX001 (ip), vehicle: other) was 217 % of control and the T/C (dose: 30.0 mg/kg/injection, schedule: Q01DX005 (ip), vehicle: saline with Tween-80) was 352 % of control. The T/C (dose: 40.0 mg/kg/injection, schedule: Q01DX005 (ip), vehicle: saline with Tween-80) was 329 % of control and the T/C (dose: 55.0 mg/kg/injection, schedule: Q01DX005 (ip), vehicle: saline with Tween-80) was 172 % of control.
